Laboratory results as given in ChEMBL document CHEMBL4382293, “Triazolopyrimidines and Imidazopyridines: Structure-Activity Relationships and in Vivo Efficacy for Trypanosomiasis” (ACS Med Chem Lett, 2019).

assay: Cmax in Swiss Webster mouse at 50 mg/kg, po administered as single dose via gavage by LC/MS analysis; type: ADME, organism-based; set-up: dose 50 mg/kg, route oral; details: in vivo

Row | SMILES | Cmax [µM]
1 | O=C(Nc1ccc(F)c(-c2nc3ncc(-c4ccc(F)cc4)cc3[nH]2)c1)N1CCCC1 | 6.27
2 | O=C(Nc1ccc(F)c(-c2nc3ncc(-c4ccc(O)cc4)cc3[nH]2)c1)N1CCCC1 | 0.13
3 | O=C(Nc1ccc(F)c(-c2nc3ncc(-c4ccccn4)cn3n2)c1)N1CCC(F)(F)C1 | 31.1
4 | O=C(Nc1ccc(F)c(-c2nc3ncc(-c4cncc(F)c4)cc3[nH]2)c1)N1CCCC1 | 1.07
5 | O=C(Nc1ccc(F)c(-c2nc3ncc(-c4ccc(F)cc4F)cc3[nH]2)c1)N1CCCC1 | 9.5
6 | O=C(Nc1ccc(F)c(-c2nc3ncc(-c4cccc(F)c4F)cc3[nH]2)c1)N1CCCC1 | 1.83
7 | O=C(Nc1ccc(F)c(-c2nc3ncc(-c4cccc(F)c4)cc3[nH]2)c1)N1CCCC1 | 7
8 | O=C(Nc1ccc(F)c(-c2nc3ncc(-c4cccnc4F)cc3[nH]2)c1)N1CCCC1 | 25.6
9 | Cc1nc(C)c(C(=O)Nc2ccc(F)c(-c3nc4ncc(-c5ccccc5Cl)cn4n3)c2)o1 | 39.3
10 | O=C(Nc1ccc(F)c(-c2nc3ncc(-c4ccccc4F)cc3[nH]2)c1)N1CCCC1 | 2.23
11 | O=C(Nc1ccc(F)c(-c2nc3ncc(-c4cc(F)cc(F)c4)cc3[nH]2)c1)N1CCCC1 | 4.8
12 | Cc1nc(C)c(C(=O)Nc2ccc(F)c(-c3nc4ncc(-c5ccccn5)cn4n3)c2)o1 | 54.4
13 | O=C(Nc1ccc(F)c(-c2nc3ncc(-c4cc(F)ccc4F)cc3[nH]2)c1)N1CCCC1 | 2.8
14 | O=C(Nc1ccc(F)c(-c2nc3ncc(-c4ccc(F)c(F)c4)cc3[nH]2)c1)N1CCCC1 | 6.67
15 | O=C(Nc1ccc(F)c(-c2nc3ncc(C(F)(F)F)cc3[nH]2)c1)N1CCCC1 | 1.08

assay: AUC in Swiss Webster mouse at 50 mg/kg, po administered as single dose via gavage by LC/MS analysis; type: ADME, organism-based; details: in vivo

Row | SMILES | AUC [µM·h]
16 | O=C(Nc1ccc(F)c(-c2nc3cc(-c4ccccc4)cnc3[nH]2)c1)N1CCCC1 | 20.7
17 | O=C(Nc1ccc(F)c(-c2nc3ncc(-c4ccc(F)cc4)cc3[nH]2)c1)N1CCCC1 | 24.3
18 | O=C(Nc1ccc(F)c(-c2nc3ncc(-c4ccc(O)cc4)cc3[nH]2)c1)N1CCCC1 | 0.328
19 | O=C(Nc1ccc(F)c(-c2nc3ncc(-c4ccccn4)cn3n2)c1)N1CCC(F)(F)C1 | 262
20 | O=C(Nc1ccc(F)c(-c2nc3ncc(-c4cncc(F)c4)cc3[nH]2)c1)N1CCCC1 | 3.7
21 | O=C(Nc1ccc(F)c(-c2nc3ncc(-c4ccc(F)cc4F)cc3[nH]2)c1)N1CCCC1 | 35.7
22 | O=C(Nc1ccc(F)c(-c2nc3ncc(-c4cccc(F)c4F)cc3[nH]2)c1)N1CCCC1 | 10.8
23 | O=C(Nc1ccc(F)c(-c2nc3ncc(-c4cccc(F)c4)cc3[nH]2)c1)N1CCCC1 | 35.8
24 | O=C(Nc1ccc(F)c(-c2nc3ncc(-c4cccnc4F)cc3[nH]2)c1)N1CCCC1 | 73.5
25 | Cc1nc(C)c(C(=O)Nc2ccc(F)c(-c3nc4ncc(-c5ccccc5Cl)cn4n3)c2)o1 | 667
26 | O=C(Nc1ccc(F)c(-c2nc3ncc(-c4ccccc4F)cc3[nH]2)c1)N1CCCC1 | 11.6
27 | O=C(Nc1ccc(F)c(-c2nc3ncc(-c4cc(F)cc(F)c4)cc3[nH]2)c1)N1CCCC1 | 21.5
28 | Cc1nc(C)c(C(=O)Nc2ccc(F)c(-c3nc4ncc(-c5ccccn5)cn4n3)c2)o1 | 765
29 | O=C(Nc1ccc(F)c(-c2nc3ncc(-c4cc(F)ccc4F)cc3[nH]2)c1)N1CCCC1 | 12.8
30 | O=C(Nc1ccc(F)c(-c2nc3ncc(-c4ccc(F)c(F)c4)cc3[nH]2)c1)N1CCCC1 | 27.5
31 | O=C(Nc1ccc(F)c(-c2nc3ncc(C(F)(F)F)cc3[nH]2)c1)N1CCCC1 | 1.24

assay: Volume of distribution at steady state in Swiss Webster mouse at […], iv administered as single dose by LC/MS analysis; type: ADME, organism-based; details: in vivo, read-out: Vdss

Row | SMILES | Vd [L/kg]
32 | O=C(Nc1ccc(F)c(-c2nc3ncc(-c4ccccn4)cn3n2)c1)N1CCC(F)(F)C1 | 0.7 to 1.1
33 | Cc1nc(C)c(C(=O)Nc2ccc(F)c(-c3nc4ncc(-c5ccccc5Cl)cn4n3)c2)o1 | 0.7 to 1.1

assay: Oral bioavailability in Swiss Webster mouse at 50 mg/kg administered as single dose via gavage by LC/MS analysis; type: ADME, organism-based; details: in vivo

Row | SMILES | bioavailability [%]
34 | O=C(Nc1ccc(F)c(-c2nc3ncc(-c4ccccn4)cn3n2)c1)N1CCC(F)(F)C1 | 70
35 | Cc1nc(C)c(C(=O)Nc2ccc(F)c(-c3nc4ncc(-c5ccccc5Cl)cn4n3)c2)o1 | 70

assay: Ratio of drug level in brain to plasma in Swiss Webster mouse at 5 mg/kg, ip measured after 1 hr by LC/MS analysis; type: ADME, organism-based; details: Swiss Webster, brain/plasma, read-out: BPR

Row | SMILES | Kp at 1 h
36 | O=C(Nc1ccc(F)c(-c2nc3ncc(-c4ccc(F)cc4)cc3[nH]2)c1)N1CCCC1 | 0.04
37 | O=C(Nc1ccc(F)c(-c2nc3ncc(-c4ccccn4)cn3n2)c1)N1CCC(F)(F)C1 | 0.02
38 | O=C(Nc1ccc(F)c(-c2nc3ncc(-c4ccc(F)cc4F)cc3[nH]2)c1)N1CCCC1 | 0.01
39 | Cc1nc(C)c(C(=O)Nc2ccc(F)c(-c3nc4ncc(-c5ccccc5Cl)cn4n3)c2)o1 | 0.23
40 | O=C(Nc1ccc(F)c(-c2nc3ncc(-c4ccccc4F)cc3[nH]2)c1)N1CCCC1 | 0.02
41 | Cc1nc(C)c(C(=O)Nc2ccc(F)c(-c3nc4ncc(-c5ccccn5)cn4n3)c2)o1 | 0.12
42 | O=C(Nc1ccc(F)c(-c2nc3ncc(-c4ccc(F)c(F)c4)cc3[nH]2)c1)N1CCCC1 | 0.02
43 | O=C(Nc1ccc(F)c(-c2nc3ncc(C(F)(F)F)cc3[nH]2)c1)N1CCCC1 | 0.08

same assay, conditions: brain, 1 h

Row | SMILES | BPR
44 | O=C(Nc1ccc(F)c(-c2nc3cc(-c4ccccc4)cnc3[nH]2)c1)N1CCCC1 | 0.04

assay: Drug level in Swiss Webster mouse plasma at 5 mg/kg, ip measured after 1 hr by LC/MS analysis; type: ADME, organism-based; details: not given

Row | SMILES | concentration at 1 h [µM]
45 | Cc1nc(C)c(C(=O)Nc2ccc(F)c(-c3nc4ncc(-c5ccccc5Cl)cn4n3)c2)o1 | 8.8

assay: Drug level in Swiss Webster mouse brain at 5 mg/kg, ip measured after 1 hr by LC/MS analysis; type: ADME, organism-based; details: read-out: Drug uptake

Row | SMILES | concentration at 1 h [µM]
46 | Cc1nc(C)c(C(=O)Nc2ccc(F)c(-c3nc4ncc(-c5ccccc5Cl)cn4n3)c2)o1 | 1.9
